Laboratory results reported in US12331026B2 (NiKang Therapeutics, Inc., priority 2022, dated 2025).

Biological target: T1, CDK2 (Homo sapiens, UniProt P24941)
T1 construct: endogenous in cells; host or cells: OVCAR3 cells
Assay: Phospho-RB measurement in OVCAR3 cells (HTRF phospho-RB S807/811)
Format: cell-based
Conditions: phosphorylation of RB protein at S807/811, HTRF, 24 h compound treatment, 0.3 to 10,000 nM, read-out: pRb (uM)
Method in brief: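 IC50 values come from four-parameter logistic fits of the DMSO-normalised 665/620 nm TR-FRET ratio for phospho-RB (S807/811). Antibody detection ran 4 h at room temperature.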

[2H]C([2H])([2H])N1CC2CCC(C1)N2c1nc(-c2cccc(NS(=O)(=O)c3c(F)cccc3F)c2F)c(-c2ccnc(NC3CC4(C3)CS(=O)(=O)C4)n2)s1 [Example 137, N-(3-(5-(2-((2,2-dioxido-2-thiaspiro[3.3]heptan-6-yl)amino)-pyrimidin-4-yl)-2-(3-(methyl-d3)-3,8-diazabicyclo[3.2.1]octan-8-yl)thiazol-4-yl)-2-fluorophenyl)-2,6-difluorobenzenesulfonamide]
IC50: 0.1 µM

O=S1(=O)CC2(CC(Nc3nccc(-c4sc(N5C6CCC5CN(CC(F)(F)F)C6)nc4-c4cccc(NS(=O)(=O)c5c(F)cccc5F)c4F)n3)C2)C1 [Example 139, N-(3-(5-(2-((2,2-dioxido-2-thiaspiro[3.3]heptan-6-yl)amino)-pyrimidin-4-yl)-2-(3-(2,2,2-trifluoroethyl)-3,8-diazabicyclo-[3.2.1]octan-8-yl)thiazol-4-yl)-2-fluorophenyl)-2,6-difluoro-benzenesulfonamide]
IC50: 0.13 µM

O=S1(=O)CC2(CC(Nc3nccc(-c4sc(N5C6CCC5CNC6)nc4-c4cccc(NS(=O)(=O)c5c(F)cccc5F)c4F)n3)C2)C1 [Example 141, N-(3-(2-(3,8-diazabicyclo[3.2.1]octan-8-yl)-5-(2-((2,2-dioxido-2-thiaspiro[3.3]heptan-6-yl)amino)pyrimidin-4-yl)thiazol-4-yl)-2-fluorophenyl)-2,6-difluorobenzenesulfonamide]
IC50: 6.7 µM

O=S1(=O)CC2(CC(Nc3nccc(-c4sc(N5C6CCC5CN(CCC(F)(F)F)C6)nc4-c4cccc(NS(=O)(=O)c5c(F)cccc5F)c4F)n3)C2)C1 [Example 142, N-(3-(5-(2-((2,2-dioxido-2-thiaspiro[3.3]heptan-6-yl)amino)-pyrimidin-4-yl)-2-(3-(3,3,3-trifluoropropyl)-3,8-diazabicyclo-[3.2.1]octan-8-yl)thiazol-4-yl)-2-fluorophenyl)-2,6-difluorobenzenesulfonamide]
IC50: 0.32 µM

O=S1(=O)CC2(CC(Nc3nccc(-c4sc(N5C6CCC5CN(C5COC5)C6)nc4-c4cccc(NS(=O)(=O)c5c(F)cccc5F)c4F)n3)C2)C1 [Example 144, N-(3-(5-(2-((2,2-dioxido-2-thiaspiro[3.3]heptan-6-yl)amino)-pyrimidin-4-yl)-2-(3-(oxetan-3-yl)-3,8-diazabicyclo[3.2.1]octan-8-yl)thiazol-4-yl)-2-fluorophenyl)-2,6-difluorobenzenesulfonamide]
IC50: 0.24 µM

CS(=O)(=O)[C@H]1CC[C@@H](Nc2nccc(-c3sc(C45CC(Cl)(C4)C5)nc3-c3cccc(NS(=O)(=O)c4c(F)cccc4C(F)(F)F)c3F)n2)CC1 [Example 146, N-(3-(2-(3-chlorobicyclo[1.1.1]pentan-1-yl)-5-(2-(((1s,4s)-4-(methylsulfonyl)cyclohexyl)amino)pyrimidin-4-yl)thiazol-4-yl)-2-fluorophenyl)-2-fluoro-6-(trifluoromethyl)benzenesulfonamide]
IC50: 0.2 µM

O=S1(=O)CC2(CC(Nc3nccc(-c4sc(N5C6CCC5CN(C5CCC(F)(F)CC5)C6)nc4-c4cccc(NS(=O)(=O)c5c(F)cccc5F)c4F)n3)C2)C1 [Example 147, N-(3-(2-(3-(4,4-difluorocyclohexyl)-3,8-diazabicyclo[3.2.1]octan-8-yl)-5-(2-((2,2-dioxido-2-thiaspiro[3.3]heptan-6-yl)amino)pyrimidin-4-yl)thiazol-4-yl)-2-fluorophenyl)-2,6-difluorobenzenesulfonamide]
IC50: 0.91 µM

O=S1(=O)CC2(CC(Nc3nccc(-c4sc(N5C6CCC5CN(C5CCOCC5)C6)nc4-c4cccc(NS(=O)(=O)c5c(F)cccc5F)c4F)n3)C2)C1 [Example 148, N-(3-(5-(2-((2,2-dioxido-2-thiaspiro[3.3]heptan-6-yl)amino)pyrimidin-4-yl)-2-(3-(tetrahydro-2H-pyran-4-yl)-3,8-diazabicyclo[3.2.1]octan-8-yl)thiazol-4-yl)-2-fluorophenyl)-2,6-difluorobenzenesulfonamide]
IC50: 0.4 µM

O=S1(=O)CC2(CC(Nc3nccc(-c4sc(N5C6CCC5CN(C5CC(F)(F)C5)C6)nc4-c4cccc(NS(=O)(=O)c5c(F)cccc5C(F)(F)F)c4F)n3)C2)C1 [Example 149, N-(3-(2-(3-(3,3-difluorocyclobutyl)-3,8-diazabicyclo[3.2.1]octan-8-yl)-5-(2-((2,2-dioxido-2-thiaspiro[3.3]heptan-6-yl)amino)pyrimidin-4-yl)thiazol-4-yl)-2-fluorophenyl)-2-fluoro-6-(trifluoromethyl)benzenesulfonamide]
IC50: 0.09 µM

O=S1(=O)CC2(CC(Nc3nccc(-c4sc(C56CC(Cl)(C5)C6)nc4-c4cccc(NS(=O)(=O)c5c(F)cccc5C(F)(F)F)c4F)n3)C2)C1 [Example 150, N-(3-(2-(3-chlorobicyclo[1.1.1]pentan-1-yl)-5-(2-((2,2-dioxido-2-thiaspiro[3.3]heptan-6-yl)amino)pyrimidin-4-yl)thiazol-4-yl)-2-fluorophenyl)-2-fluoro-6-(trifluoromethyl)benzenesulfonamide]
IC50: 0.17 µM

CC1(C#N)CC2CCC(C1)N2c1nc(-c2cccc(NS(=O)(=O)c3c(F)cccc3C(F)(F)F)c2F)c(-c2ccnc(NC3CC4(C3)CS(=O)(=O)C4)n2)s1 (centres unmarked) [Example 151, N-(3-(2-(3-cyano-3-methyl-8-azabicyclo[3.2.1]octan-8-yl)-5-(2-((2,2-dioxido-2-thiaspiro[3.3]heptan-6-yl)amino)pyrimidin-4-yl)thiazol-4-yl)-2-fluorophenyl)-2-fluoro-6-(trifluoromethyl)benzenesulfonamide]
IC50: 0.051 µM

O=S1(=O)C[C@H]2C[C@H](Nc3nccc(-c4sc(C56CC(C5)C6)nc4-c4cccc(NS(=O)(=O)c5c(F)cccc5F)c4F)n3)C[C@H]2C1 [Example 152, N-(3-(2-(bicyclo[1.1.1]pentan-1-yl)-5-(2-(((3aR,5s,6aS)-2,2-dioxidohexahydro-1H-cyclopenta[c]thiophen-5-yl)amino)pyrimidin-4-yl)thiazol-4-yl)-2-fluorophenyl)-2,6-difluorobenzenesulfonamide]
IC50: 0.15 µM

CC1C2(CC(Nc3nccc(-c4sc(C56CC(C5)C6)nc4-c4cccc(NS(=O)(=O)c5c(F)cccc5F)c4F)n3)C2)CS1(=O)=O (centres unmarked) [Example 153, N-(3-(2-(bicyclo[1.1.1]pentan-1-yl)-5-(2-((1-methyl-2,2-dioxido-2-thiaspiro[3.3]heptan-6-yl)amino)pyrimidin-4-yl)thiazol-4-yl)-2-fluorophenyl)-2,6-difluorobenzenesulfonamide]
IC50: 0.06 µM

CC1C2(CC(Nc3nccc(-c4sc(C56CC(C5)C6)nc4-c4cccc(NS(=O)(=O)c5c(F)cccc5F)c4F)n3)C2)C(C)S1(=O)=O (centres unmarked) [Example 154, N-(3-(2-(bicyclo[1.1.1]pentan-1-yl)-5-(2-((1,3-dimethyl-2,2-dioxido-2-thiaspiro[3.3]heptan-6-yl)amino)pyrimidin-4-yl)thiazol-4-yl)-2-fluorophenyl)-2,6-difluorobenzenesulfonamide]
IC50: 0.095 µM
